Values after ≈ are worked out from the molar mass of the structure shown.
What follows are compounds tested on Mycobacterium tuberculosis (assay: Antimicrobial activity against p-aminosalicylic acid/isonicotinic acid hydrazide/etambutol/rifampicin resistant Mycobacterium tuberculosis Spec. 210 by classical test tube method).
Format: functional

SMILES | MIC
FC(F)(F)c1cc(-n2cc(CN3CCCN(c4noc5ccccc45)CC3)nn2)ccc1Br | 24 µM (≈ 12.5 µg/mL)
O=C(CCCc1c[nH]c2ccccc12)N1CCCN(c2noc3ccccc23)CC1 | > 200 µM
O=C(Cc1c[nH]c2ccccc12)N1CCN(c2noc3ccccc23)CC1 | > 200 µM
COc1cccc(-n2cc(CN3CCCN(c4noc5ccccc45)CC3)nn2)c1 | > 200 µM
O=[N+]([O-])c1ccc(-n2cc(CN3CCN(c4noc5ccccc45)CC3)nn2)cc1 | > 200 µM
COc1cccc(-n2cc(CN3CCN(c4noc5ccccc45)CC3)nn2)c1 | 128 µM (≈ 50 µg/mL)
C#CCN1CCCN(c2noc3ccccc23)CC1 | 196 µM (≈ 50 µg/mL)
Brc1ccc(-n2cc(CN3CCN(c4noc5ccccc45)CC3)nn2)cc1 | > 200 µM
C#CCN1CCN(c2noc3ccccc23)CC1 | > 200 µM
FC(F)(F)c1cccc(-n2cc(CN3CCN(c4noc5ccccc45)CC3)nn2)c1 | 29.2 µM (≈ 12.5 µg/mL)
O=C(Cc1c[nH]c2ccccc12)N1CCCN(c2noc3ccccc23)CC1 | 134 µM (≈ 50 µg/mL)
Clc1ccc(-n2cc(CN3CCN(c4noc5cc(Cl)ccc45)CC3)nn2)cc1 | > 200 µM
O=C(CCCc1c[nH]c2ccccc12)N1CCN(c2noc3cc(Cl)ccc23)CC1 | > 200 µM
O=C(CCCc1c[nH]c2ccccc12)N1CCN(c2noc3ccccc23)CC1 | > 200 µM
COc1ccc(-n2cc(CN3CCCN(c4noc5ccccc45)CC3)nn2)cc1 | > 200 µM
O=C(CCc1c[nH]c2ccccc12)N1CCCN(c2noc3ccccc23)CC1 | > 200 µM
CCc1ccc(-n2cc(CN3CCCN(c4noc5ccccc45)CC3)nn2)cc1 | > 200 µM
Fc1ccc(-n2cc(CN3CCN(c4noc5ccccc45)CC3)nn2)cc1 | 132 µM (≈ 50 µg/mL)
Clc1ccc2c(N3CCN(Cc4cn(-c5ccc(Br)cc5)nn4)CC3)noc2c1 | > 200 µM
Brc1ccc(-n2cc(CN3CCCN(c4noc5ccccc45)CC3)nn2)cc1 | > 200 µM

SMILES | MIC
FC(F)(F)c1cc(-n2cc(CN3CCN(c4noc5ccccc45)CC3)nn2)ccc1Br | 6.16 µM (≈ 3.13 µg/mL)
O=C(Cc1c[nH]c2ccccc12)N1CCN(c2noc3cc(Cl)ccc23)CC1 | 127 µM (≈ 50.1 µg/mL)
COc1ccc(-n2cc(CN3CCN(c4noc5ccccc45)CC3)nn2)cc1 | > 200 µM
Clc1ccc(-n2cc(CN3CCCN(c4noc5ccccc45)CC3)nn2)cc1 | > 200 µM
O=[N+]([O-])c1ccc(-n2cc(CN3CCCN(c4noc5ccccc45)CC3)nn2)cc1 | > 200 µM
FC(F)(F)c1cccc(-n2cc(CN3CCCN(c4noc5ccccc45)CC3)nn2)c1 | 28.3 µM (≈ 12.5 µg/mL)
O=[N+]([O-])c1ccc(-n2cc(CN3CCN(c4noc5cc(Cl)ccc45)CC3)nn2)cc1 | > 200 µM
Clc1cccc(-n2cc(CN3CCCN(c4noc5ccccc45)CC3)nn2)c1 | 122 µM (≈ 50.1 µg/mL)
CCc1ccc(-n2cc(CN3CCN(c4noc5cc(Cl)ccc45)CC3)nn2)cc1 | > 200 µM
Clc1cccc(-n2cc(CN3CCN(c4noc5ccccc45)CC3)nn2)c1 | 63.4 µM (≈ 25 µg/mL)
COc1ccc(-n2cc(CN3CCN(c4noc5cc(Cl)ccc45)CC3)nn2)cc1 | 118 µM (≈ 50.1 µg/mL)
O=C(CCc1c[nH]c2ccccc12)N1CCN(c2noc3cc(Cl)ccc23)CC1 | > 200 µM
O=C(CCc1c[nH]c2ccccc12)N1CCN(c2noc3ccccc23)CC1 | > 200 µM
Clc1ccc(-n2cc(CN3CCN(c4noc5ccccc45)CC3)nn2)cc1 | > 200 µM
CCc1ccc(-n2cc(CN3CCN(c4noc5ccccc45)CC3)nn2)cc1 | > 200 µM
Fc1ccc(-n2cc(CN3CCCN(c4noc5ccccc45)CC3)nn2)cc1 | 127 µM (≈ 50 µg/mL)
Fc1ccc(-n2cc(CN3CCN(c4noc5cc(Cl)ccc45)CC3)nn2)cc1 | 121 µM (≈ 50.1 µg/mL)
C#CCN1CCN(c2noc3cc(Cl)ccc23)CC1 | > 200 µM
NNC(=O)c1ccncc1 [ISONIAZID] | 91.1 µM (≈ 12.5 µg/mL)

Source: ChEMBL document CHEMBL3792309, “Seeking potent anti-tubercular agents: Design, synthesis, anti-tubercular activity and docking study of various ((triazoles/indole)-piperazin-1-yl/1,4-diazepan-1-yl)benzo[d]isoxazole derivatives” (Bioorg Med Chem Lett, 2016)
